# Test results reported in patent US20130236473A1, “THERAPEUTIC AGENTS AND PROPHYLACTIC AGENTS FOR SYMPTOMS ACCOMPANYING AUTOIMMUNE DISEASES, INFLAMMATORY DISEASES, ALLERGY DISEASES AND ORGAN TRANSPLANTS” (OSAKA UNIVERSITY, priority 2010, published 2013).
# Test system: IL-6 amplifier
# Assay: Example 2: PI3 kinase inhibitors, mIL-6 protein production on IL-6 amplifier activation in BC-1 cells (ELISA)
# Format: cell-based
# Conditions: 24 hours, conditions (a) to (d), 0 or 100 ng/ml mouse epiregulin, LY294002 0.1-10, PIK75 0.01-1.0 micromole/L
# Procedure: 2×10^5 mouse BC-1 cells were cultured in an RPMI 1640 medium for 24 hours under each of the following conditions: • (a) in the presence of 10% FBS, • (b) with the addition of 50 ng/ml of hIL-6 protein and 50 ng/ml of hIL-6R protein (hereinafter referred to as “hIL-6/6R proteins”) and in the presence of 10% FBS, • (c) with the addition of 50 ng/ml of mIL-17A protein and in the presence of 10% FBS, • (d) with the addition of hIL-6/6R proteins at 50 ng/ml and mIL-17A protein at 50 ng/ml and in the presence of 10% FBS, • (e) in the absence of FBS, • (f) with the addition of hIL-6/6R proteins each at 50 ng/ml and in the absence of FBS, • (g) with the addition of 50 ng/ml of mIL-17A protein and in the absence of FBS, or • (h) with the addition of hIL-6/6R proteins each at 50 ng/ml and mIL-17A protein at 50 ng/ml and in the absence of FBS. […]
# After the culture, the production amount of mouse IL-6 protein under each condition was quantified by an ELISA method. […]
structure (smiles),measurement,value
"O=c1cc(N2CCOCC2)oc2c(-c3ccccc3)cccc12 [LY294002, 2-(4-Morpholinyl)-8-phenyl-4H-1-benzopyran-4-one]",increase in the expression amount of mIL-6 protein due to the activation of IL-6 amplifier,can be suppressed
